According to ChEMBL document CHEMBL1201862, “PubChem BioAssay data set” (2004):
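Following 48 hours of exposure in 96-well plates, responses at five concentrations were used to interpolate endpoints linearly. GI50: concentration for 50% inhibition of growth.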 The source made the active and inactive calls. Cut-off read from the data, not from the text of the source: active = GI50 up to about 1.1 µM and inactive = higher. Starred links: 1 amine or outer side, 2 acyl side, 3 side chain; linkers in the order of their positions; H or OH if unused. Positions of bridges follow the written chain, without caps; N, C: chain ends. Non-standard residues stand in square brackets, D forms with d. Residues, ends and D or L forms follow the SMILES beside them. ξ: configuration not given here. X11 = CCC(C)C(N[*:1])C(O)CC(=O)O[C@H](C(=O)C(C)C(=O)[*:2])C(C)C; X10 = O=C([C@@H]1CC(O)CN1[*:1])[*:2]; NMeY = CN[C@@H](Cc1ccc(O)cc1)C(=O)O; ξNMeL = CNC(CC(C)C)C(=O)O; ξT = CC(O)C(N)C(=O)O

Key:
Test in all cases: NCI tumour cell line growth inhibition, 48 h
U-251 = system: U-251
786-0 = system: 786-0
NCI-H23 = system: NCI-H23
SK-OV-3 = system: SK-OV-3
SF-295 = system: SF-295
M14 = system: M14
UACC-62 = system: UACC-62
SNB-75 = system: SNB-75
HL-60 = system: HL-60
KM12 = system: KM12
HOP-92 = system: HOP-92
SNB-19 = system: SNB-19
SR = system: SR
CCRF-CEM = system: CCRF-CEM
OVCAR-8 = system: OVCAR-8
TK-10 = system: TK-10
IGROV-1 = system: IGROV-1
HCC 2998 = system: HCC 2998
CAKI-1 = system: CAKI-1
NCI-H226 = system: NCI-H226

| SMILES | GI50 (U-251) | GI50 (786-0) | GI50 (NCI-H23) | GI50 (SK-OV-3) | GI50 (SF-295) | GI50 (M14) | GI50 (UACC-62) | GI50 (SNB-75) | GI50 (HL-60) | GI50 (KM12) | GI50 (HOP-92) | GI50 (SNB-19) | GI50 (SR) | GI50 (CCRF-CEM) | GI50 (OVCAR-8) | GI50 (TK-10) | GI50 (IGROV-1) | GI50 (HCC 2998) | GI50 (CAKI-1) | GI50 (NCI-H226) |
| --- | --- | --- | --- | --- | --- | --- | --- | --- | --- | --- | --- | --- | --- | --- | --- | --- | --- | --- | --- | --- |
| CC1(C)Oc2ccccc2OC1O (stereo not given) | > 100 µM (inactive) | > 100 µM (inactive) | > 100 µM (inactive) | > 100 µM (inactive) | > 100 µM (inactive) | > 100 µM (inactive) | > 100 µM (inactive) | > 100 µM (inactive) | > 100 µM (inactive) | > 100 µM (inactive) | > 100 µM (inactive) | > 100 µM (inactive) | > 100 µM (inactive) | > 100 µM (inactive) | > 100 µM (inactive) | > 100 µM (inactive) | > 100 µM (inactive) | > 100 µM (inactive) | > 100 µM (inactive) | > 100 µM (inactive) |
| N#CCC(=O)N/N=C1\C(=O)N(c2ccc(Cl)cc2)C(=O)C(=O)C1c1nc2ccccc2o1 (stereo not given) | > 100 µM (inactive) | > 100 µM (inactive) | > 100 µM (inactive) | > 100 µM (inactive) | > 100 µM (inactive) | > 100 µM (inactive) | > 100 µM (inactive) | > 100 µM (inactive) | > 100 µM (inactive) | > 100 µM (inactive) | 91.8 µM (inactive) | > 100 µM (inactive) | > 100 µM (inactive) | > 100 µM (inactive) | > 100 µM (inactive) | > 100 µM (inactive) | > 100 µM (inactive) | > 100 µM (inactive) | > 100 µM (inactive) | > 100 µM (inactive) |
| Cc1ccc2c(O)cc(-c3ccccc3)nc2n1 | 0.0875 µM (active) | 0.222 µM (active) | 0.313 µM (active) | 0.105 µM (active) | 0.0585 µM (active) | 0.0643 µM (active) | 0.0521 µM (active) | 0.0664 µM (active) | 0.0255 µM (active) | 0.0304 µM (active) | 1.44 µM (inactive) | 0.309 µM (active) | < 0.0306 µM (active) | 0.0887 µM (active) | 0.217 µM (active) | 0.12 µM (active) | 0.11 µM (active) | 0.157 µM (active) | 0.0564 µM (active) | 0.472 µM (active) |
| CCOC(=O)C1C(=O)CN2CCc3c([nH]c4ccccc34)C12C(=O)OCC (stereo not given) | > 100 µM (inactive) | > 100 µM (inactive) | > 100 µM (inactive) | > 100 µM (inactive) | > 100 µM (inactive) | > 100 µM (inactive) | > 100 µM (inactive) | > 100 µM (inactive) | > 100 µM (inactive) | > 100 µM (inactive) | > 100 µM (inactive) | > 100 µM (inactive) | > 100 µM (inactive) | > 100 µM (inactive) | > 100 µM (inactive) | > 100 µM (inactive) | > 100 µM (inactive) | > 100 µM (inactive) | > 100 µM (inactive) | > 100 µM (inactive) |
| COC(=O)C1CCC(=O)N1C(c1ccc2c(c1)OCO2)c1cc(OC)c(OC)c(OC)c1 (stereo not given) | > 100 µM (inactive) | > 100 µM (inactive) | > 100 µM (inactive) | > 100 µM (inactive) | > 100 µM (inactive) | > 100 µM (inactive) | > 100 µM (inactive) | > 100 µM (inactive) | > 100 µM (inactive) | > 100 µM (inactive) | > 100 µM (inactive) | > 100 µM (inactive) | > 100 µM (inactive) | > 100 µM (inactive) | > 100 µM (inactive) | > 100 µM (inactive) | > 100 µM (inactive) | > 100 µM (inactive) | > 100 µM (inactive) | > 100 µM (inactive) |
| COc1ccc(NC(=O)C(=O)NO)c(OC)c1 | 16.7 µM (inactive) | 16 µM (inactive) | 18.6 µM (inactive) | 19.5 µM (inactive) | 14 µM (inactive) | 16.3 µM (inactive) | 14.8 µM (inactive) | 16.5 µM (inactive) | 17.1 µM (inactive) | 19.8 µM (inactive) | 20.6 µM (inactive) | 14.9 µM (inactive) | 0.239 µM (active) | 23 µM (inactive) | 15 µM (inactive) | 22.4 µM (inactive) | 15.4 µM (inactive) | 21.4 µM (inactive) | 13.8 µM (inactive) | 22.3 µM (inactive) |
| Cc1cccc(C)c1NC(=O)C(=O)C1C(=O)N(c2ccccc2)N=C1N (stereo not given) | > 100 µM (inactive) | > 100 µM (inactive) | > 100 µM (inactive) | > 100 µM (inactive) | > 100 µM (inactive) | > 100 µM (inactive) | > 100 µM (inactive) | 94.4 µM (inactive) | > 100 µM (inactive) | > 100 µM (inactive) | > 100 µM (inactive) | > 100 µM (inactive) | > 100 µM (inactive) | > 100 µM (inactive) | > 100 µM (inactive) | > 100 µM (inactive) | > 100 µM (inactive) | > 100 µM (inactive) | > 100 µM (inactive) | > 100 µM (inactive) |
| CC(NC(=O)c1ccc(OP(=O)(OCC2=CC(=O)c3ccccc3C2=O)N(C)CCCCCl)cc1)c1ccc(OCC2CCCCC2)c(C(N)=O)c1 (stereo not given) | 10.6 µM (inactive) | 14.6 µM (inactive) | 2.7 µM (inactive) | 15.4 µM (inactive) | 5.06 µM (inactive) | 3.32 µM (inactive) | 9.64 µM (inactive) | 0.0122 µM (active) | 14.5 µM (inactive) | 12 µM (inactive) | 0.0244 µM (active) | 14.4 µM (inactive) | 12.6 µM (inactive) | 7.71 µM (inactive) | 13.4 µM (inactive) | 25.1 µM (inactive) | 9.66 µM (inactive) | 0.0149 µM (active) | 9.44 µM (inactive) | 11.1 µM (inactive) |
| CCC(C)C1NC(=O)C(NC(=O)C(CC(C)C)N(C)C(=O)[C@@H]2CC(O)CN2)C(C)OC(=O)[C@H](Cc2ccc(OC)cc2)N(C)C(=O)[C@@H]2CCCN2C(=O)[C@H](CC(C)C)NC(=O)C(C)C(=O)[C@H](C(C)C)OC(=O)CC1O (stereo not given in full) (H-[X10][ξNMeL][ξT][X11]LP[NMeY](Me); ester 3-C) | 0.00175 µM (active) | 0.0121 µM (active) | 0.01 µM (active) | 0.00321 µM (active) | 0.0113 µM (active) | 0.00419 µM (active) | < 0.001 µM (active) | 0.0106 µM (active) | 0.0114 µM (active) | < 0.001 µM (active) | 0.0189 µM (active) | 0.00819 µM (active) | 0.0148 µM (active) | 0.00233 µM (active) | 0.0384 µM (active) | 0.164 µM (active) | 0.00272 µM (active) | 0.00469 µM (active) | 0.232 µM (active) | 0.00182 µM (active) |
